In ChEMBL document CHEMBL4483862, “Open-source discovery of chemical leads for next-generation chemoprotective antimalarials” (2018):

Tested on: Plasmodium berghei
Assay: Luciferase/luciferin-expressing antifolate-resistant parasites were used to infect a culture of HepG2 cells that were pre-incubated with compounds. Infected hepatocytes emit light due to the luciferase reaction. Assay results are presented as the percent inhibition of light emission compared to control. […]
Format: functional
Conditions: sporozoite; for IC90: read-out: LUCIFERASE INFECTION ASSAY - IC90
[1] = read-out: LUCIFERASE INFECTION ASSAY - IC50

| SMILES | IC90 | IC50 [1] | also measured |
| --- | --- | --- | --- |
| COc1cc(NC(=O)c2sccc2Oc2ccc(C(F)(F)F)cc2[N+](=O)[O-])c(Cl)cc1Cl | 5.34 µM |  | IC50 (FFLUC_HILL_SLOPE 15.3, FFLUC_R_SQUARED 0.803, PBLUC_HILL_SLOPE 1.96, PBLUC_R_SQUARED 0.575, read-out: LUCIFERASE INFECTION ASSAY - IC50): 1.74 µM |
| CSc1cnc(-n2c(-c3ccc(C)cc3)cs/c2=N\C(=O)c2ccccc2)nc1 | > 10 µM |  | IC50 (PBLUC_HILL_SLOPE 2.11, PBLUC_R_SQUARED 0.145, read-out: LUCIFERASE INFECTION ASSAY - IC50): > 10 µM |
| CCCCNC(=O)c1c(NC(=O)COc2ccccc2)nc2ccccn12 | > 9.01 µM |  | IC50 (FFLUC_HILL_SLOPE 15.1, FFLUC_R_SQUARED 0.601, PBLUC_HILL_SLOPE 2.91, PBLUC_R_SQUARED 0.515, read-out: LUCIFERASE INFECTION ASSAY - IC50): 5.13 µM |
| CC(C)(C)c1ccc(/C=N/NC(=O)CNc2ccccc2F)cc1 | > 10 µM | > 10 µM |  |
| CC(C)(C)NC(=O)CN1CCN(Cc2ccc(-c3ccccc3C#N)cc2)CC1 | > 10 µM |  | IC50 (HEPG2TOX_HILL_SLOPE 0.417, HEPG2TOX_R_SQUARED 0.524, read-out: LUCIFERASE INFECTION ASSAY - IC50): > 10 µM |
| COc1ccc(C(=O)Nc2ccc3nc(-c4ccccc4)nn3c2)cc1F | > 10 µM |  | IC50 (FFLUC_HILL_SLOPE 22.9, FFLUC_R_SQUARED 0.117, read-out: LUCIFERASE INFECTION ASSAY - IC50): > 10 µM |
| O=[N+]([O-])c1ccc(Oc2ccc(F)cc2Br)c2ccncc12 | 9.13 µM |  | IC50 (HEPG2TOX_HILL_SLOPE 8.14, 7.27, HEPG2TOX_R_SQUARED 0.719, 0.841, PBLUC_HILL_SLOPE 4.57, PBLUC_R_SQUARED 0.39, read-out: LUCIFERASE INFECTION ASSAY - IC50): 5.65 µM |
| O=C(c1ccccc1)C1CCN(C(=O)/C=C/c2cccc(Cl)c2Cl)CC1 | > 10 µM |  | IC50 (PBLUC_HILL_SLOPE 1.75, PBLUC_R_SQUARED 0.122, read-out: LUCIFERASE INFECTION ASSAY - IC50): > 10 µM |
| O=C(Nc1ncc(Cc2ccccc2)s1)c1ccc2nc[nH]c2c1 | > 10 µM |  | IC50 (HEPG2TOX_HILL_SLOPE 3.11, HEPG2TOX_R_SQUARED 0.961, PBLUC_HILL_SLOPE 3.02, PBLUC_R_SQUARED 0.464, read-out: LUCIFERASE INFECTION ASSAY - IC50): 5.71 µM |
| Cc1cn2c(/C=C/C(=O)Nc3cccc(Cl)c3N3CCOCC3)c(C)nc2s1 | > 10 µM | > 10 µM |  |
| CCn1c2ccccc2c2cc(NC(=O)COC(=O)Cc3cccs3)ccc21 | > 10 µM |  | IC50 (PBLUC_HILL_SLOPE 11.3, PBLUC_R_SQUARED 0.588, read-out: LUCIFERASE INFECTION ASSAY - IC50): 9.26 µM |
| CN(C)c1ccc(CNC(=O)C2CCN(C(=O)NCc3ccco3)CC2)cc1 | > 10 µM | > 10 µM |  |
| OCCNc1nc(Oc2ccc(-c3ccccc3)cc2)nc2ccccc12 | 1.97 µM |  | IC50 (PBLUC_HILL_SLOPE 1.95, PBLUC_R_SQUARED 0.572, read-out: LUCIFERASE INFECTION ASSAY - IC50): 0.64 µM |
| CN(C)c1nc(N)c2c(N)nc3c(cc(O)n3C(=O)NC34CC5CC(CC(C5)C3)C4)c2c1C#N | > 10 µM | 5.64 µM |  |
| CC(C)n1ncc2c(C(=O)NCCCn3ccc4ccccc43)cc(C3CC3)nc21 | > 10 µM | > 10 µM |  |
| CCN(CC)c1ccc(NC(=O)c2c(-c3c(Cl)cccc3Cl)noc2C)c(N(CC)CC)n1 | > 6.73 µM | > 6.73 µM |  |
| Cn1ncc2c(=O)n(Cc3sc4ccccc4c3Cl)cnc21 | > 10 µM | > 10 µM |  |
| O=C1C(=Nc2ccc(O)cc2)C=C(NS(=O)(=O)c2cccs2)c2ccccc21 | 3.54 µM |  | IC50 (FFLUC_HILL_SLOPE 12.7, FFLUC_R_SQUARED 0.111, HEPG2TOX_HILL_SLOPE 2.05, HEPG2TOX_R_SQUARED 0.969, PBLUC_HILL_SLOPE 9.12, PBLUC_R_SQUARED 0.459, read-out: LUCIFERASE INFECTION ASSAY - IC50): 2.78 µM |
| O=C(Nc1ccc(-c2nc3ccccc3[nH]2)cc1)c1cnn(-c2ccccc2)c1C1CC1 | 3.59 µM | 3.31 µM |  |
| CNc1nc2cnc(Nc3ccc(F)c(Cl)c3)cc2n1-c1cccc(C(F)(F)F)c1 | > 10 µM | > 10 µM |  |
| COc1nc2c(c(-c3c(F)cccc3Cl)c1C#N)Cc1ccccc1-2 | > 9.41 µM |  | IC50 (HEPG2TOX_HILL_SLOPE 6.94, HEPG2TOX_R_SQUARED 0.218, PBLUC_HILL_SLOPE 33.2, PBLUC_R_SQUARED 0.233, read-out: LUCIFERASE INFECTION ASSAY - IC50): 9 µM |
| Cc1ccc(S(=O)(=O)CCN2CCC(C#N)CC2)cc1 | > 11.3 µM | > 11.3 µM |  |
| O=C(COc1ccccc1SCc1ccc(Cl)cc1)NNC(=O)c1cccc(C(F)(F)F)c1 | > 6.67 µM | > 6.67 µM |  |

| SMILES | IC90 | IC50 [1] | also measured |
| --- | --- | --- | --- |
| O=C(CSc1nnc(-c2ccco2)n1-c1ccc(OCc2ccccc2)cc1)c1ccc(Cl)cc1 | > 6.57 µM | > 6.57 µM |  |
| CC(=O)N(/N=C/c1ccc(C(F)(F)F)cc1)C1=NN(C(C)=O)C(c2ccc(C(F)(F)F)cc2)S1 (configuration not stated) | > 6.57 µM | > 6.57 µM |  |
| O=C(Nc1cccc(C(F)(F)F)c1)Nc1ncc([N+](=O)[O-])s1 | 2.73 µM |  | IC50 (HEPG2TOX_HILL_SLOPE 2.24, HEPG2TOX_R_SQUARED 0.981, PBLUC_HILL_SLOPE 1.72, PBLUC_R_SQUARED 0.576, read-out: LUCIFERASE INFECTION ASSAY - IC50): 0.759 µM |
| CCOC(=O)N1CCC(NC(=O)/C(=C/c2ccc(OC(F)F)cc2)c2ccccc2)CC1 | 9.96 µM |  | IC50 (PBLUC_HILL_SLOPE 9.1, PBLUC_R_SQUARED 0.0303, read-out: LUCIFERASE INFECTION ASSAY - IC50): 7.82 µM |
| Cc1sc2nc(-c3cccnc3)nc(NC3CCC(O)CC3)c2c1-c1ccccc1 (configuration not stated) | > 10 µM | > 10 µM |  |
| O=C(Nc1ccc2c(c1)OCO2)c1cnc(N2CCN(CCc3ccccc3)C2=O)o1 | > 10 µM |  | IC50 (HEPG2TOX_HILL_SLOPE 7.5, HEPG2TOX_R_SQUARED 0.498, PBLUC_HILL_SLOPE 1.96, PBLUC_R_SQUARED 0.361, read-out: LUCIFERASE INFECTION ASSAY - IC50): 3.61 µM |
| COc1ccc(-c2nc3c(c(SCCN4CCCC4)n2)COC(C)(C)C3)cc1 | > 8.26 µM |  | IC50 (PBLUC_HILL_SLOPE 2.26, PBLUC_R_SQUARED 0.135, read-out: LUCIFERASE INFECTION ASSAY - IC50): 5.35 µM |
| N#C/C(=C\c1ccc([N+](=O)[O-])s1)C(N)=S | > 13.8 µM |  | IC50 (FFLUC_HILL_SLOPE 3.11, FFLUC_R_SQUARED 0.767, read-out: LUCIFERASE INFECTION ASSAY - IC50): > 13.8 µM |
| O=C1c2n[nH]c(-c3ccccc3O)c2C(c2ccccc2F)N1Cc1ccco1 (configuration not stated) | > 8.47 µM |  | IC50 (FFLUC_HILL_SLOPE 2.17, FFLUC_R_SQUARED 0.481, read-out: LUCIFERASE INFECTION ASSAY - IC50): > 8.47 µM |
| Cc1nn(-c2ccccc2C(F)(F)F)c2nc(-c3ccccc3)cc(C(=O)N3CCCC(C)C3)c12 (configuration not stated) | > 10 µM |  | IC50 (PBLUC_HILL_SLOPE 14.7, PBLUC_R_SQUARED 0.435, read-out: LUCIFERASE INFECTION ASSAY - IC50): 9.53 µM |
| CN(C)c1ccc(C(=O)Oc2ccc(-c3nnco3)cc2)cn1 | > 10 µM | > 10 µM |  |
| CCC1CCc2sc(C(=O)NCCc3ccccn3)cc2C1 (configuration not stated) | > 10 µM |  | IC50 (PBLUC_HILL_SLOPE 5.05, PBLUC_R_SQUARED 0.237, read-out: LUCIFERASE INFECTION ASSAY - IC50): 7.77 µM |
| CCOc1ccc(C(C)=O)cc1COC(=O)c1cc(-c2ccccc2)nc2c1c(C)nn2-c1ccccc1 | > 10 µM | > 10 µM |  |
| Cc1ccc(-n2cccc2)c(NC(=O)c2c(-c3c(Cl)cccc3Cl)noc2C)c1 | > 7.74 µM |  | IC50 (PBLUC_HILL_SLOPE 1.2, PBLUC_R_SQUARED 0.354, read-out: LUCIFERASE INFECTION ASSAY - IC50): 4.14 µM |
| Cc1cc(C2(c3cc(C)n(-c4ccccc4)c3C)CCC(C)CC2)c(C)n1-c1ccccc1 | > 10 µM |  | IC50 (FFLUC_HILL_SLOPE 2.77, FFLUC_R_SQUARED 0.531, read-out: LUCIFERASE INFECTION ASSAY - IC50): > 10 µM |
| Cc1cc(C)c(C#N)c(SCC(=O)N(C)Cc2cnn(-c3ccccc3)c2)n1 | > 10 µM |  | IC50 (PBLUC_HILL_SLOPE 0.688, PBLUC_R_SQUARED 0.271, read-out: LUCIFERASE INFECTION ASSAY - IC50): 4.09 µM |
| COc1cccc(/C=N/NC(=S)NC2CC3CCC2C3)c1O (configuration not stated) | > 10.3 µM | > 10.3 µM |  |
| O=S(=O)(Nc1cccc(-c2ncon2)c1)c1cc(C(F)(F)F)cc(C(F)(F)F)c1 | > 7.55 µM | 0.531 µM |  |
| N=C(NOC(=O)Nc1ccc(OC(F)(F)F)cc1)c1cc(Cl)c(N)c(Cl)c1 | > 7.8 µM | > 7.8 µM |  |
| COc1ccc(/C=C/C(=O)c2cc(F)c(Cl)cc2Cl)c(OC)c1OC | > 10 µM | 9.74 µM |  |
| C=C(C)[C@@H]1CC=C(CN2CCC3(CC2)C(=O)N(CCCc2cccnc2)C(=O)N3CC)CC1 | 6.89 µM |  | IC50 (HEPG2TOX_HILL_SLOPE 0.525, HEPG2TOX_R_SQUARED 0.846, PBLUC_HILL_SLOPE 1.68, PBLUC_R_SQUARED 0.809, read-out: LUCIFERASE INFECTION ASSAY - IC50): 1.86 µM |
| CC(=O)Nc1cccc(Nc2nccc3[nH]c(-c4ccccc4)cc23)c1 | 0.748 µM |  | IC50 (HEPG2TOX_HILL_SLOPE 1.53, HEPG2TOX_R_SQUARED 0.824, PBLUC_HILL_SLOPE 2.66, PBLUC_R_SQUARED 0.657, read-out: LUCIFERASE INFECTION ASSAY - IC50): 0.328 µM |
| O=C1C=C(c2ccccc2)C(=O)N1c1cccc(Cl)c1 | > 11.6 µM |  | IC50 (FFLUC_HILL_SLOPE 29.2, FFLUC_R_SQUARED 0.289, PBLUC_HILL_SLOPE 11, PBLUC_R_SQUARED 0.329, read-out: LUCIFERASE INFECTION ASSAY - IC50): 11.3 µM |
